Converted amounts (≈) assume the structure as drawn.
Key:
[1] = system: vancomycin-sensitive Staphylococcus aureus (VSSA strain ATCC 25923); experiment: Antimicrobial assay, MIC, vancomycin-sensitive S. aureus; format: cell-based; conditions: Staphylococcus aureus, ATCC25923; ATCC 25923; read-out: MIC, sensitive S. aureus
Protocol: (§1) Assays were carried out following the methods of Clinical and Laboratory Standards Institute; Methods for Dilution Antimicrobial Susceptibility Tests for Bacteria That Grow Aerobically; Approved Standard, […].; CLSI document M07-A8; Clinical and Laboratory Standards Institute: Wayne, Pa., 2009.
(§2) This diluted bacterial stock solution was then inoculated into a well of a V-shaped 96-well glass coated microtiter plate, supplemented with serial diluted aliquots of the antibiotic solution DMSO (4 μL), to achieve a total assay volume of 0.1 mL. The plate was then incubated at 37° C. for 18 hours, after which minimal inhibitory concentrations (MICs) were determined by monitoring the cell growth (observed as a pellet) in the wells. The lowest concentration of antibiotic (in μg/mL) capable of eliminating the cell growth in the wells is reported as the MIC.

[2] = system: methicillin and oxacillin-resistant Staphylococcus aureus subsp. aureus (MRSA strain ATCC 43300); experiment: Antimicrobial assay, MIC, MRSA; format: cell-based; conditions: for MIC: Staphylococcus aureus, read-out: MIC, MRSA S. aureus
Protocol: as §1, §2

[3] = system: vancomycin-resistant Enterococcus faecalis (VanB VRE, strain ATCC 51299); experiment: microbe, parasite or virus in culture; format: cell-based; conditions: for MIC: Enterococcus faecalis, read-out: MIC, VanB E. faecalis
Protocol: as §1, §2

[4] = system: vancomycin-resistant Enterococcus faecalis (VanA VRE, BM4166); experiment: microbe, parasite or virus in culture; format: cell-based; conditions: for MIC: Enterococcus faecalis, VRE, read-out: MIC, VanA E. faecalis
Protocol: as §1, §2

[5] = system: Enterococcus faecium (VanA VRE, ATCC BAA-2317); experiment: Antimicrobial assay, MIC, VanA E. faecium; format: cell-based; conditions: for MIC: Enterococcus faecium, read-out: MIC, VanA E. faecium
Protocol: as §1, §2

VanA VRE = experiment: Antimicrobial assay, MIC for VanA VRE; format: cell-based, E. faecalis and E. faecium
Protocol: as §1, §2

Molecule | MIC [1] [µg/mL] | MIC [2] [µg/mL] | MIC [3] [µg/mL] | MIC [4] [µg/mL] | MIC [5] [µg/mL] | also measured
CN[C@H](CC(C)C)C(=O)N[C@H]1C(=O)N[C@@H](CC(N)=O)C(=O)N[C@H]2C(=S)NC3C(=O)N[C@H](C(=O)N[C@H](CO)c4cc(O)cc(O)c4-c4cc3ccc4O)[C@H](O)c3ccc(c(Cl)c3)Oc3cc2cc(c3OC2OC(CO)C(O)[C@H](O)[C@@H]2O[C@H]2CC(C)(N)[C@H](O)[C@H](C)O2)Oc2ccc(cc2Cl)[C@H]1O (stereo partly shown) [Compound 24] | > 32 | > 32 | > 32 | > 32 | > 32 | –
CN[C@H](CC(C)C)C(=O)N[C@H]1C(=O)N[C@@H](CC(N)=O)C(=O)N[C@H]2C(=N)NC3C(=O)N[C@H](C(=O)N[C@H](CO)c4cc(O)cc(O)c4-c4cc3ccc4O)[C@H](O)c3ccc(c(Cl)c3)Oc3cc2cc(c3OC2OC(CO)C(O)[C@H](O)[C@@H]2O[C@H]2CC(C)(N)[C@H](O)[C@H](C)O2)Oc2ccc(cc2Cl)[C@H]1O (stereo partly shown) [Compound 25] | – | – | – | 2 (≈ 1.39 µM) | 2 (≈ 1.39 µM) | –
CN[C@H](CC(C)C)C(=O)N[C@H]1C(=O)N[C@@H](CC(N)=O)C(=O)N[C@H]2C(=O)NC3C(=O)N[C@H](C(=O)N[C@H](CO)c4cc(O)cc(O)c4-c4cc3ccc4O)[C@H](O)c3ccc(c(Cl)c3)Oc3cc2cc(c3OC2OC(CO)C(O)[C@H](O)[C@@H]2O[C@H]2CC(C)(NCc3ccc(-c4ccc(Cl)cc4)cc3)[C@H](O)[C@H](C)O2)Oc2ccc(cc2Cl)[C@H]1O (stereo partly shown) [Compound 26] | 0.03 (≈ 0.0183 µM) | 0.03 (≈ 0.0183 µM) | 0.13 (≈ 0.0795 µM) | 2 (≈ 1.22 µM) | 4 (≈ 2.45 µM) | –
CN[C@H](CC(C)C)C(=O)N[C@H]1C(=O)N[C@@H](CC(N)=O)C(=O)N[C@H]2C(=S)NC3C(=O)N[C@H](C(=O)N[C@H](CO)c4cc(O)cc(O)c4-c4cc3ccc4O)[C@H](O)c3ccc(c(Cl)c3)Oc3cc2cc(c3OC2OC(CO)C(O)[C@H](O)[C@@H]2O[C@H]2CC(C)(NCc3ccc(-c4ccc(Cl)cc4)cc3)[C@H](O)[C@H](C)O2)Oc2ccc(cc2Cl)[C@H]1O (stereo partly shown) [Compound 27] | 4 (≈ 2.42 µM) | 8 (≈ 4.84 µM) | 4 (≈ 2.42 µM) | 8 (≈ 4.84 µM) | 4 (≈ 2.42 µM) | –
CN[C@H](CC(C)C)C(=O)N[C@H]1C(=O)N[C@@H](CC(N)=O)C(=O)N[C@H]2C(=N)NC3C(=O)N[C@H](C(=O)N[C@H](CO)c4cc(O)cc(O)c4-c4cc3ccc4O)[C@H](O)c3ccc(c(Cl)c3)Oc3cc2cc(c3OC2OC(CO)C(O)[C@H](O)[C@@H]2O[C@H]2CC(C)(NCc3ccc(-c4ccc(Cl)cc4)cc3)[C@H](O)[C@H](C)O2)Oc2ccc(cc2Cl)[C@H]1O (stereo partly shown) [Compound 28] | 0.13 (≈ 0.0795 µM) | 0.13 (≈ 0.0795 µM) | 0.06 (≈ 0.0367 µM) | 0.02 (≈ 0.0122 µM) | 0.02 (≈ 0.0122 µM) | –
CBP-[Ψ[CH2NH]Tpg^4]vancomycin [Compound 17] | – | – | – | – | – | MIC, MRSA S. aureus ([2]; ATCC 43300): 0.25 µg/mL; MIC, MRSA S. aureus, serum concentration 10% ([2]; ATCC 43300, 10%): 0.25 µg/mL; MIC, MRSA S. aureus, serum concentration 25% ([2]; ATCC 43300, 25%): 0.5 µg/mL; MIC, MRSA S. aureus, serum concentration 100% ([2]; ATCC 43300, 100%): 1 µg/mL; MIC, VanB E. faecalis ([3]; ATCC 51299): 0.5 µg/mL; MIC, Van B E. faecalis, serum concentration 10% ([3]; ATCC 51299, 10%): 0.5 µg/mL; MIC, Van B E. faecalis, serum concentration 25% ([3]; ATCC 51299, 25%): 1 µg/mL; MIC, Van B E. faecalis, serum concentration 100% ([3]; ATCC 51299, 100%): 2 µg/mL; MIC, VanA E. faecalis ([4]; BM 4166): 0.13 µg/mL; MIC, Van A E. faecalis, serum concentration 10% ([4]; BM 4166, 10%): 0.13 µg/mL; MIC, Van A E. faecalis, serum concentration 25% ([4]; BM 4166, 25%): 0.26 µg/mL; MIC, Van A E. faecalis, serum concentration 100% ([4]; BM 4166, 100%): 0.5 µg/mL; improvement in activity against VanA VRE on introduction of the (4-chlorobiphenyl)methyl group (VanA VRE; relative to the analogue without CBP group): 100 fold; MIC against VanA VRE (VanA VRE; stated for VanA VRE): 0.06 to 0.13 µg/mL; MIC, VanA E. faecium ([5]; ATCC BAA-2317): 0.06 µg/mL; MIC, Van A E. faecium, serum concentration 10% ([5]; ATCC BAA-2317, 10%): 0.06 µg/mL; MIC, Van A E. faecium, serum concentration 25% ([5]; ATCC BAA-2317, 25%): 0.13 µg/mL; MIC, Van A E. faecium, serum concentration 100% ([5]; ATCC BAA-2317, 100%): 0.5 µg/mL
